Test results from US10428082B2, “Triazole derivatives of melampomagnolide B and methods of use thereof” (BioVentures, LLC, priority 2016, dated 2019).
Read-outs that look alike come from different tables or passages of the source.

Assays:
[1] = tested on: M9 ENL1 cell line; assay: Anti-leukemic activity, Annexin V/7-AAD flow cytometry; assay type: cell-based; conditions: 24 h of drug exposure, read-out: M9ENL1 (EC50)
Description: The newly synthesized triazole derivatives of melampomagnolide B were screened for anti-leukemic activity against M9 ENL1 and primary AML cell lines; the latter were obtained with informed consent from human patients. Evaluations were performed after 24 h of drug exposure using flow cytometric analysis by labeling with Annexin V and 7-aminoactinomycin D (7-AAD) to delineate apoptotic cell populations. In all experiments PTL was included as a reference control.

[2] = tested on: 786-0; assay: NCI 60 growth inhibition; assay type: cell-based, human; conditions: 786-0, Renal Cancer
Description: (§1) The above triazole derivatives of melampomagnolide B were evaluated for growth inhibitory properties against an NCI panel of 60 human cancer cell lines derived from nine human cancer cell types, grouped into disease sub-panels that represent leukemia, lung, colon, central nervous system (CNS), melanoma, renal, ovary, breast, and prostate cancer cells. Growth inhibitory (GI50) effects were measured as a function of the variation of optical density as a percentage of control.

[3] = tested on: A498; assay: NCI 60 growth inhibition; assay type: cell-based, human; conditions: A498, Renal Cancer
Description: as §1

[4] = tested on: A549/ATCC; assay: NCI 60 growth inhibition; assay type: cell-based, human; conditions: Non-Small Cell Lung Cancer
Description: as §1

[5] = tested on: COLO 205; assay: NCI 60 growth inhibition; assay type: cell-based, human; conditions: COLO 205, Colon Cancer
Description: as §1

[6] = tested on: HCC-2998; assay: NCI 60 growth inhibition; assay type: cell-based, human; conditions: HCC-2998, Colon Cancer
Description: as §1

[7] = tested on: HCT-15; assay: NCI 60 growth inhibition; assay type: cell-based, human; conditions: HCT-15, Colon Cancer
Description: as §1

[8] = tested on: HOP-62; assay: NCI 60 growth inhibition; assay type: cell-based, human; conditions: HOP-62, Non-Small Cell Lung Cancer
Description: as §1

[9] = tested on: HOP-92; assay: NCI 60 growth inhibition; assay type: cell-based, human; conditions: HOP-92, Non-Small Cell Lung Cancer
Description: as §1

[10] = tested on: HS 578T; assay: NCI 60 growth inhibition; assay type: cell-based, human; conditions: Breast Cancer
Description: as §1

[11] = tested on: IGROV1; assay: NCI 60 growth inhibition; assay type: cell-based, human; conditions: IGROV1, Ovarian Cancer
Description: as §1

[12] = tested on: LOX IMVI; assay: NCI 60 growth inhibition; assay type: cell-based, human; conditions: Melanoma
Description: as §1

[13] = tested on: M14; assay: NCI 60 growth inhibition; assay type: cell-based, human; conditions: M14, Melanoma
Description: as §1

[14] = tested on: MALME-3M; assay: NCI 60 growth inhibition; assay type: cell-based, human; conditions: Melanoma
Description: as §1

[15] = tested on: MDA-MB-231/ATCC; assay: NCI 60 growth inhibition; assay type: cell-based, human; conditions: Breast Cancer
Description: as §1

[16] = tested on: MDA-MB-468; assay: NCI 60 growth inhibition; assay type: cell-based, human; conditions: MDA-MB-468, Breast Cancer
Description: as §1

[17] = tested on: MOLT-4; assay: NCI 60 growth inhibition; assay type: cell-based, human; conditions: MOLT-4, Leukemia
Description: as §1

[18] = tested on: NCI-H226; assay: NCI 60 growth inhibition; assay type: cell-based, human; conditions: NCI-H226, Non-Small Cell Lung Cancer
Description: as §1

[19] = tested on: NCI-H23; assay: NCI 60 growth inhibition; assay type: cell-based, human; conditions: NCI-H23, Non-Small Cell Lung Cancer
Description: as §1

[20] = tested on: NCI-H322M; assay: NCI 60 growth inhibition; assay type: cell-based, human; conditions: Non-Small Cell Lung Cancer
Description: as §1

[21] = tested on: NCI-H460; assay: NCI 60 growth inhibition; assay type: cell-based, human; conditions: NCI-H460, Non-Small Cell Lung Cancer
Description: as §1

[22] = tested on: NCI-H522; assay: NCI 60 growth inhibition; assay type: cell-based, human; conditions: NCI-H522, Non-Small Cell Lung Cancer
Description: as §1

[23] = tested on: NCI/ADR-RES; assay: NCI 60 growth inhibition; assay type: cell-based, human; conditions: Ovarian Cancer
Description: as §1

[24] = tested on: OVCAR-3; assay: NCI 60 growth inhibition; assay type: cell-based, human; conditions: OVCAR-3, Ovarian Cancer
Description: as §1

[25] = tested on: RXF 393; assay: NCI 60 growth inhibition; assay type: cell-based, human
Description: as §1

[26] = tested on: SF-295; assay: NCI 60 growth inhibition; assay type: cell-based, human; conditions: SF-295, CNS Cancer
Description: as §1

[27] = tested on: SF-539; assay: NCI 60 growth inhibition; assay type: cell-based, human; conditions: SF-539, CNS Cancer
Description: as §1

[28] = tested on: SK-MEL-2; assay: NCI 60 growth inhibition; assay type: cell-based, human; conditions: SK-MEL-2, Melanoma
Description: as §1

[29] = tested on: SK-MEL-5; assay: NCI 60 growth inhibition; assay type: cell-based, human; conditions: SK-MEL-5, Melanoma
Description: as §1

[30] = tested on: SK-OV-3; assay: NCI 60 growth inhibition; assay type: cell-based, human; conditions: SK-OV-3, Ovarian Cancer
Description: as §1

[31] = tested on: SNB-75; assay: NCI 60 growth inhibition; assay type: cell-based, human; conditions: SNB-75, CNS Cancer
Description: as §1

[32] = tested on: T-47D; assay: NCI 60 growth inhibition; assay type: cell-based, human; conditions: Breast Cancer
Description: as §1

[33] = tested on: TK-10; assay: NCI 60 growth inhibition; assay type: cell-based, human; conditions: TK-10, Renal Cancer
Description: as §1

[34] = tested on: UO-31; assay: NCI 60 growth inhibition; assay type: cell-based, human; conditions: UO-31, Renal Cancer
Description: as §1

[35] = tested on: SR; assay: NCI 60 growth inhibition; assay type: cell-based, human; conditions: Homo sapiens, Leukemia, Table 2
Description: as §1

[36] = tested on: NCI panel of 60 human cancer cell lines; assay: NCI 60 growth inhibition, ranges over groups of cell lines; assay type: cell-based; conditions: several cell lines in the panel, read-out: GI50
Description: as §1

SMILES: C=C1C(=O)O[C@H]2[C@H]1CC/C(Cn1cc(-c3ccccc3C(F)(F)F)nn1)=C\CC[C@@]1(C)O[C@@H]21 [JVM 4-59]
- EC50 [1]: 3.9 µM
- GI50 ([2]; Table 3): 1.84 µM
- GI50 ([3]; Table 3): 3.86 µM
- GI50 ([4]; Table 3): 7.23 µM
- GI50 ([5]; Table 3): 1.98 µM
- GI50 ([6]; Table 3): 1.85 µM
- GI50 ([7]; Table 3): 1.05 µM
- GI50 ([8]; Table 3): 4.73 µM
- GI50 ([9]; Table 3): 1.48 µM
- GI50 ([10]; Table 3): 3.57 µM
- GI50 ([11]; Table 3): 1.81 µM
- GI50 ([12]; Table 3): 1.11 µM
- GI50 ([13]; Table 3): 2.15 µM
- GI50 ([14]; Table 3): 1.7 µM
- GI50 ([15]; Table 3): 1.64 µM
- GI50 ([16]; Table 3): 1.14 µM
- GI50 ([17]; Table 3): 3.03 µM
- GI50 ([18]; Table 3): 1.73 µM
- GI50 ([19]; Table 3): 1.75 µM
- GI50 ([20]; Table 3): 10.8 µM
- GI50 ([21]; Table 3): 3.97 µM
- GI50 ([22]; Table 3): 1.38 µM
- GI50 ([23]; Table 3): 2.99 µM
- GI50 ([24]; Table 3): 1.04 µM
- GI50 ([25]; RXF 393, Renal Cancer, Table 3): 1.07 µM
- GI50 ([26]; Table 3): 10.3 µM
- GI50 ([27]; Table 3): 1.76 µM
- GI50 ([28]; Table 3): 2.45 µM
- GI50 ([29]; Table 3): 1.72 µM
- GI50 ([30]; Table 3): 17.3 µM
- GI50 ([31]; Table 3): 2.97 µM
- GI50 ([32]; Table 3): 1.7 µM
- GI50 ([33]; Table 3): 1.71 µM
- GI50 ([34]; Table 3): 1.23 µM

SMILES: C=C1C(=O)O[C@H]2[C@H]1CC/C(Cn1cc(CCC)nn1)=C\CC[C@@]1(C)O[C@@H]21 [JVM 4-16, (1aR,7aS,10aS,10bS,E)-1a-Methyl-8-methylene-5((4-propyl-1H-1,2,3-triazol-1-yl)methyl)-2,3,6,7,7a,8,10a,10b-octahydrooxireno[2′,3′:9,10]cyclodeca[1,2-b]furan-9(1aH)-one]
- EC50 ([1]; M9-ENL1, 24 h): 5.5 µM
- GI50 ([2]; Homo sapiens, Table 2): 11.3 µM
- GI50 ([3]; Homo sapiens, Table 2): 21.5 µM
- GI50 ([4]; Homo sapiens, Table 2): 22.3 µM
- GI50 ([5]; Homo sapiens, Table 2): 5.22 µM
- GI50 ([6]; Homo sapiens, Table 2): 15.1 µM
- GI50 ([7]; Homo sapiens, Table 2): 2.9 µM
- GI50 ([8]; Homo sapiens, Table 2): 14.1 µM
- GI50 ([9]; Homo sapiens, Table 2): 2.94 µM
- GI50 ([10]; Homo sapiens, Table 2): 23.4 µM
- GI50 ([11]; Homo sapiens, IGROV-1, Table 2): 4.63 µM
- GI50 ([12]; Homo sapiens, Table 2): 3.91 µM
- GI50 ([13]; Homo sapiens, Table 2): 3.99 µM
- GI50 ([14]; Homo sapiens, Table 2): 4.7 µM
- GI50 ([15]; Homo sapiens, Table 2): 4.22 µM
- GI50 ([16]; Homo sapiens, Table 2): 3.65 µM
- GI50 ([17]; Homo sapiens, Table 2): 5.54 µM
- GI50 ([18]; Homo sapiens, Table 2): 12.6 µM
- GI50 ([19]; Homo sapiens, Table 2): 13.6 µM
- GI50 ([20]; Homo sapiens, Table 2): 21.5 µM
- GI50 ([21]; Homo sapiens, Table 2): 21.2 µM
- GI50 ([22]; Homo sapiens, Table 2): 3.06 µM
- GI50 ([23]; Homo sapiens, Table 2): 15.2 µM
- GI50 ([24]; Homo sapiens, Table 2): 3.96 µM
- GI50 ([25]; Homo sapiens, RXF 393, RXF 393, Renal Cancer, Table 2): 4.8 µM
- GI50 ([26]; Homo sapiens, Table 2): 18.5 µM
- GI50 ([27]; Homo sapiens, Table 2): 8.87 µM
- GI50 ([28]; Homo sapiens, Table 2): 16.3 µM
- GI50 ([29]; Homo sapiens, Table 2): 15.3 µM
- GI50 ([30]; Homo sapiens, Table 2): 26 µM
- GI50 ([31]; Homo sapiens, Table 2): 18.5 µM
- GI50 [35]: 2.88 µM
- GI50 ([32]; Homo sapiens, T47D, Table 2): 4.11 µM
- GI50 ([33]; Homo sapiens, Table 2): 3.86 µM
- GI50 ([34]; Homo sapiens, Table 2): 11.1 µM
- GI50 [36]: < 5 µM
